The test system of this assay is L1210 leukemia ip in BDF1 mice, survival T/C. Nature of the assay: NCI In Vivo Anticancer Drug Screen. Data for tumor model L1210 Leukemia (intraperitoneal) in B6D2F1 (BDF1) mice. To be noted: endpoint: mean survival time, higher = longer survival. An outline of the steps:
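Ratio derived from survival: compound-dosed mice over vehicle-dosed mice, all bearing a transplantable tumor.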

[1] abbreviates: dose: 100.0 mg/kg/injection, schedule: Q01DX001 (ip), vehicle: saline with Tween-80.
The mark [2] stands for this setting: dose: 100.0 mg/kg/injection, schedule: Q01DX009 (ip), vehicle: saline with Tween-80.
Setting [3] is: dose: 100.0 mg/kg/injection, schedule: Q04DX003 (ip), vehicle: saline with Tween-80.
Where [4] appears, read: dose: 200.0 mg/kg/injection, schedule: Q01DX001 (ip), vehicle: saline with Tween-80.
The mark [5] stands for this setting: dose: 200.0 mg/kg/injection, schedule: Q01DX009 (ip), vehicle: saline with Tween-80.
The mark [6] stands for this setting: dose: 200.0 mg/kg/injection, schedule: Q04DX003 (ip), vehicle: saline with Tween-80.
[7] abbreviates: dose: 400.0 mg/kg/injection, schedule: Q01DX001 (ip), vehicle: saline with Tween-80.
Setting [8] is: dose: 400.0 mg/kg/injection, schedule: Q01DX009 (ip), vehicle: saline with Tween-80.
[9] abbreviates: dose: 400.0 mg/kg/injection, schedule: Q04DX003 (ip), vehicle: saline with Tween-80.
Setting [10] is: dose: 100.0 mg/kg/injection, schedule: Q01DX001 (ip), vehicle: saline.
[11] abbreviates: dose: 200.0 mg/kg/injection, schedule: Q01DX001 (ip), vehicle: saline.
Setting [12] is: dose: 400.0 mg/kg/injection, schedule: Q01DX001 (ip), vehicle: saline.
Setting [13] is: dose: 12.5 mg/kg/injection, schedule: Q01DX009 (ip), vehicle: saline.
Where [14] appears, read: dose: 25.0 mg/kg/injection, schedule: Q01DX009 (ip), vehicle: saline.
Where [15] appears, read: dose: 50.0 mg/kg/injection, schedule: Q01DX009 (ip), vehicle: saline.
[16] abbreviates: dose: 100.0 mg/kg/injection, schedule: Q01DX009 (ip), vehicle: Klucel (hydroxypropylcellulose) (HPC).
[17] abbreviates: dose: 200.0 mg/kg/injection, schedule: Q01DX009 (ip), vehicle: Klucel (hydroxypropylcellulose) (HPC).
Where [18] appears, read: dose: 400.0 mg/kg/injection, schedule: Q01DX009 (ip), vehicle: Klucel (hydroxypropylcellulose) (HPC).
Setting [19] is: dose: 100.0 mg/kg/injection, schedule: Q01DX009 (ip), vehicle: saline.
The mark [20] stands for this setting: dose: 200.0 mg/kg/injection, schedule: Q01DX009 (ip), vehicle: saline.
The mark [21] stands for this setting: dose: 400.0 mg/kg/injection, schedule: Q01DX009 (ip), vehicle: saline.
Where [22] appears, read: dose: 50.0 mg/kg/injection, schedule: Q01DX001 (ip), vehicle: saline.

Our source for the T/C values is PubChem BioAssay AID248 (DTP/NCI, 2004).

“And” between values parts separate entries of the source, which are not always exact repeats. Equal entries are not always repeated. Inconclusive results and toxic doses are left out.

On to `O=C(NC(=S)Nc1ccc(Br)cc1)c1ccc(Cl)cc1Cl`, for which the T/C reads like this: under setting [1], 92 % of control; under setting [2], 97 % of control and 102 % of control; (dose: 100.0 mg/kg/injection, schedule: Q04DX002 (ip), vehicle: saline with Tween-80) 95 % of control and 90 % of control; under setting [3], 95 % of control; under setting [4], 90 % of control; under setting [5], 97 % of control and 88 % of control. Besides, the T/C runs as follows: (dose: 200.0 mg/kg/injection, schedule: Q04DX002 (ip), vehicle: saline with Tween-80) 93 % of control and 101 % of control; under setting [6], 98 % of control; under setting [7], 97 % of control; under setting [8], 97 % of control and 90 % of control; (dose: 400.0 mg/kg/injection, schedule: Q04DX002 (ip), vehicle: saline with Tween-80) 90 % of control and 92 % of control; under setting [9], 93 % of control.

For the molecule `C=CCN1C(=O)NC(=O)C1c1ccsc1` (stereo not given), the T/C is, setting by setting: under setting [10], 90 % of control; under setting [11], 93 % of control; under setting [12], 93 % of control.

For the molecule `FCCCC1CCCCN1` (stereo not given), the T/C is 98 % of control under setting [13]; 102 % of control under setting [14]; 96 % of control and 109 % of control under setting [15].

For the molecule `CC(=O)Nc1c([N+](=O)[O-])cc2c3c(cccc13)C=C2`, the T/C is 96 % of control under setting [5] and 96 % of control under setting [8].

Take `CC(C)(C)C1COC(=O)C1` (stereo not given): the T/C is, setting by setting: (dose: 10.0 mg/kg/injection, schedule: Q01DX001 (ip), vehicle: saline) 103 % of control; (dose: 20.0 mg/kg/injection, schedule: Q01DX001 (ip), vehicle: saline) 98 % of control.

Consider `CCCCCCCC[As](C)(=O)O`, for which the T/C (dose: 6.25 mg/kg/injection, schedule: Q01DX009 (ip), vehicle: saline with Tween-80) was 89 % of control.

On to `O=C1C(=O)c2c3ccccc3cc3cccc1c23`, for which the T/C was 88 % of control (dose: 50.0 mg/kg/injection, schedule: Q01DX009 (ip), vehicle: saline with Tween-80) and 91 % of control under setting [2].

Turning to `O=C1OCCN1S(=O)(=O)c1ccc(Cl)c(Cl)c1`, the T/C under setting [16] is 87 % of control; the T/C (dose: 100.0 mg/kg/injection, schedule: Q04DX003 (ip), vehicle: Klucel (hydroxypropylcellulose) (HPC)) is 100 % of control; the T/C under setting [17] was 97 % of control; the T/C (dose: 200.0 mg/kg/injection, schedule: Q04DX003 (ip), vehicle: Klucel (hydroxypropylcellulose) (HPC)) is 105 % of control; the T/C under setting [18] was 90 % of control; the T/C (dose: 400.0 mg/kg/injection, schedule: Q04DX003 (ip), vehicle: Klucel (hydroxypropylcellulose) (HPC)) is 101 % of control.

In the case of `CC(Cc1ccccc1)NCCn1cnc2c1c(=O)n(C)c(=O)n2C` (stereo not given), the T/C runs as follows: (dose: 6.25 mg/kg/injection, schedule: Q01DX009 (ip), vehicle: saline) 94 % of control; under setting [13], 98 % of control; under setting [14], 94 % of control; under setting [15], 102 % of control.

Consider `CCC(C)(C(=O)NO)c1ccccc1` (stereo not given), for which the T/C runs as follows: under setting [1], 110 % of control; under setting [4], 101 % of control.

`COC(=N)c1cccc(O)c1`: the T/C was 99 % of control under setting [19], 97 % of control under setting [20] and 99 % of control under setting [21].

For the molecule `O=C(CCCC(=O)N/N=C/c1ccc(I)cc1)N/N=C\c1ccc(I)cc1`, the T/C by setting is: under setting [22], 100 % of control; under setting [10], 93 % of control; under setting [11], 93 % of control; under setting [12], 97 % of control.

Regarding `CC(C)CC1NC(C)(C)N(CC(=O)O)C1=O` (stereo not given), the T/C is, setting by setting: under setting [22], 88 % of control; under setting [11], 99 % of control.

As to `O=C(COc1ccc(Cl)cc1Cl)Nc1cccc2c1C(=O)c1ccccc1C2=O`, the T/C is 96 % of control (dose: 100.0 mg/kg/injection, schedule: Q04DX002 (ip), vehicle: saline + alcohol); 100 % of control (dose: 200.0 mg/kg/injection, schedule: Q04DX002 (ip), vehicle: saline + alcohol); 96 % of control (dose: 400.0 mg/kg/injection, schedule: Q04DX002 (ip), vehicle: saline + alcohol).

Consider `O=C(N/N=C/c1cc([N+](=O)[O-])ccc1O)c1cccc2ccccc12`, for which the T/C runs as follows: under setting [10], 90 % of control; under setting [11], 90 % of control; under setting [12], 92 % of control.

Regarding `CCOC(=O)c1cnc(SC)nc1Oc1ccccc1Cl`, the T/C was 96 % of control under setting [1]; 98 % of control under setting [2]; 97 % of control under setting [4]; 96 % of control under setting [5]; 97 % of control under setting [7]; 93 % of control under setting [8].

On to `CCCCCCCCCCCCCCCCN(C)c1ccc(C=O)cc1`, for which the T/C reads like this: under setting [19], 97 % of control; (dose: 100.0 mg/kg/injection, schedule: Q04DX003 (ip), vehicle: saline) 104 % of control; under setting [20], 100 % of control; (dose: 200.0 mg/kg/injection, schedule: Q04DX003 (ip), vehicle: saline) 98 % of control; under setting [21], 103 % of control; (dose: 400.0 mg/kg/injection, schedule: Q04DX003 (ip), vehicle: saline) 105 % of control.

`O=C(CCCNC(=O)OCc1ccccc1)NCCCCCCCCCCNC(=O)CCCNC(=O)OCc1ccccc1`: the T/C was 102 % of control (dose: 10.0 mg/kg/injection, schedule: Q01DX012 (ip), vehicle: saline); 96 % of control (dose: 30.0 mg/kg/injection, schedule: Q01DX012 (ip), vehicle: saline); 90 % of control (dose: 100.0 mg/kg/injection, schedule: Q01DX012 (ip), vehicle: saline); 91 % of control (dose: 300.0 mg/kg/injection, schedule: Q01DX012 (ip), vehicle: saline).

Regarding `C=CCCCCCCCCC(=O)N/N=C/c1ccccc1`, the T/C reads like this: (dose: 100.0 mg/kg/injection, schedule: Q04DX002 (ip), vehicle: Klucel (hydroxypropylcellulose) (HPC)) 95 % of control; (dose: 200.0 mg/kg/injection, schedule: Q04DX002 (ip), vehicle: Klucel (hydroxypropylcellulose) (HPC)) 100 % of control.

With `CCCC(=O)NC1=C(N2CC2)C(=O)C(NC(=O)CCC)=C(N2CC2)C1=O`, the T/C was 104 % of control (dose: 0.13 mg/kg/injection, schedule: Q01DX010 (oral), vehicle: saline); 110 % of control (dose: 0.25 mg/kg/injection, schedule: Q01DX010 (oral), vehicle: saline); 116 % of control (dose: 0.5 mg/kg/injection, schedule: Q01DX010 (oral), vehicle: saline); 116 % of control (dose: 1.0 mg/kg/injection, schedule: Q01DX010 (oral), vehicle: saline); 124 % of control (dose: 1.0 mg/kg/injection, schedule: Q01DX Z (ip), vehicle: saline); 166 % of control and 193 % of control (dose: 2.0 mg/kg/injection, schedule: Q01DX Z (ip), vehicle: saline). Moreover, the T/C is, setting by setting: (dose: 4.0 mg/kg/injection, schedule: Q01DX010 (oral), vehicle: saline) 154 % of control; (dose: 8.0 mg/kg/injection, schedule: Q01DX Z (ip), vehicle: saline) 100 % of control.

In the case of `O=C(O)CC[P+](c1ccccc1)(c1ccccc1)c1ccccc1`, the T/C is, setting by setting: under setting [3], 90 % of control; under setting [6], 98 % of control; under setting [9], 93 % of control.

Turning to `O=C1CC(=O)C(Br)=C1Br`, the T/C is 101 % of control (dose: 1.5 mg/kg/injection, schedule: Q04DX003 (ip), vehicle: saline with Tween-80) and 105 % of control (dose: 3.0 mg/kg/injection, schedule: Q04DX003 (ip), vehicle: saline with Tween-80).

For `COC1CCC2(C)C(C)C(C)CC3OC32C1` (stereo not given), the T/C is, setting by setting: under setting [22], 95 % of control; under setting [10], 101 % of control; under setting [11], 95 % of control; under setting [12], 104 % of control.

As for `CCOC(=O)c1ccc(NC(=O)Nc2ccc(Cl)cc2[N+](=O)[O-])cc1`, the T/C runs as follows: under setting [16], 95 % of control and 92 % of control; under setting [17], 92 % of control; under setting [18], 88 % of control and 92 % of control.
